# Source: patent US11572590B2, “Methods for evaluating tumor cell spheroids using 3D microfluidic cell culture device” (Dana-Farber Cancer Institute, Inc., priority 2017, dated 2023)
# Where two headings read alike, the source gives them in different places.
# Key:
# Experiment in all cases: SelectScreen Kinase Profiling, single point inhibition and IC50 for off-target kinases
# Format in all cases: biochemical
# off-target kinases [1] = target: off-target kinases (Homo sapiens, UniProt Q05397); conditions: PTK2 (FAK), ZLYTE, ATP Km app
# off-target kinases [2] = target: T1, off-target kinases (Homo sapiens, UniProt P51955); conditions: NEK2, ZLYTE, ATP Km app
# T1 sequence (P51955 1-445): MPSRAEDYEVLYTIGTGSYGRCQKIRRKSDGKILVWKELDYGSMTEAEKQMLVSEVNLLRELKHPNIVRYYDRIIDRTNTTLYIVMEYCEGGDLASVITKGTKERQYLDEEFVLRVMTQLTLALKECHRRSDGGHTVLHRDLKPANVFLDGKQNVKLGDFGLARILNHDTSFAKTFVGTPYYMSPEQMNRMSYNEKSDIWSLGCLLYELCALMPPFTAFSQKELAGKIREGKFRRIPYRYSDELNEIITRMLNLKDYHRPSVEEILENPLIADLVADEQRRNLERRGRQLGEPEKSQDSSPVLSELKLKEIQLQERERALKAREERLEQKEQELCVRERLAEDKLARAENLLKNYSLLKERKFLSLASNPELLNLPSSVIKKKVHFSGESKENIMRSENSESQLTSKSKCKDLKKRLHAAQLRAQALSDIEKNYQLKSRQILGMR
# off-target kinases [3] = target: off-target kinases (Homo sapiens, UniProt P51451); conditions: BLK, ATP Km app, ZLYTE
# off-target kinases [4] = target: off-target kinases (Homo sapiens, UniProt P10721, A829P); conditions: KIT A829P, LanthaScreen Binding
# off-target kinases [5] = target: T2, off-target kinases (Homo sapiens, UniProt Q12866, A708S); conditions: MERTK (cMER) A708S, mutant y, LanthaScreen Binding
# T2 sequence (Q12866 21-999 A708S): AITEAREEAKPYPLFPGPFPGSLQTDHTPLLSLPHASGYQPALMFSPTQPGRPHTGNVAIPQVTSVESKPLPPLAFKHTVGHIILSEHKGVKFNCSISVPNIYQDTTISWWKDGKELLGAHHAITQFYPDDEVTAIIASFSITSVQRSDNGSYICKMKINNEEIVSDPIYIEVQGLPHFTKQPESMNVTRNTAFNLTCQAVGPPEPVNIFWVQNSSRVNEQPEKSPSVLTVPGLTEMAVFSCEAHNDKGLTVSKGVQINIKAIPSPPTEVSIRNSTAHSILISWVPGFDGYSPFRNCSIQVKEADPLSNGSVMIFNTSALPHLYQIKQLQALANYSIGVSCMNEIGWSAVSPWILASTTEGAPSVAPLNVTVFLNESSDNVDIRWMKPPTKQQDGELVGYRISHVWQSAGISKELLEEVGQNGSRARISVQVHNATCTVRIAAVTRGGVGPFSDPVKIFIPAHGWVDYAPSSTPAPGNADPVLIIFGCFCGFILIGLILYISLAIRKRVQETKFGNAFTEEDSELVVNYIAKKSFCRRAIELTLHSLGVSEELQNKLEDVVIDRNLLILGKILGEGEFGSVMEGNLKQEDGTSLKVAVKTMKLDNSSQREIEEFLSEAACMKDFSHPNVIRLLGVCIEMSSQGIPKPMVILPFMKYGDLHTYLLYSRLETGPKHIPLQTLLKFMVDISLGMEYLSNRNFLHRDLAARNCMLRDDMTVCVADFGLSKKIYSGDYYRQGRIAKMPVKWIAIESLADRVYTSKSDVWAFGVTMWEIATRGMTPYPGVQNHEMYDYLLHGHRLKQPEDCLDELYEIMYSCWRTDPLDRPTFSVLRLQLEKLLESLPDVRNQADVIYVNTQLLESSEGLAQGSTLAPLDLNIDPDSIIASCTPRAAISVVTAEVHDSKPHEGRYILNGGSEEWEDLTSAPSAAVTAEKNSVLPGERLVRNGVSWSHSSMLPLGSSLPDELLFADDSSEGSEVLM
# Chain of off-target kinases (Homo sapiens, UniProt Q05397) (Q05397 whole entry): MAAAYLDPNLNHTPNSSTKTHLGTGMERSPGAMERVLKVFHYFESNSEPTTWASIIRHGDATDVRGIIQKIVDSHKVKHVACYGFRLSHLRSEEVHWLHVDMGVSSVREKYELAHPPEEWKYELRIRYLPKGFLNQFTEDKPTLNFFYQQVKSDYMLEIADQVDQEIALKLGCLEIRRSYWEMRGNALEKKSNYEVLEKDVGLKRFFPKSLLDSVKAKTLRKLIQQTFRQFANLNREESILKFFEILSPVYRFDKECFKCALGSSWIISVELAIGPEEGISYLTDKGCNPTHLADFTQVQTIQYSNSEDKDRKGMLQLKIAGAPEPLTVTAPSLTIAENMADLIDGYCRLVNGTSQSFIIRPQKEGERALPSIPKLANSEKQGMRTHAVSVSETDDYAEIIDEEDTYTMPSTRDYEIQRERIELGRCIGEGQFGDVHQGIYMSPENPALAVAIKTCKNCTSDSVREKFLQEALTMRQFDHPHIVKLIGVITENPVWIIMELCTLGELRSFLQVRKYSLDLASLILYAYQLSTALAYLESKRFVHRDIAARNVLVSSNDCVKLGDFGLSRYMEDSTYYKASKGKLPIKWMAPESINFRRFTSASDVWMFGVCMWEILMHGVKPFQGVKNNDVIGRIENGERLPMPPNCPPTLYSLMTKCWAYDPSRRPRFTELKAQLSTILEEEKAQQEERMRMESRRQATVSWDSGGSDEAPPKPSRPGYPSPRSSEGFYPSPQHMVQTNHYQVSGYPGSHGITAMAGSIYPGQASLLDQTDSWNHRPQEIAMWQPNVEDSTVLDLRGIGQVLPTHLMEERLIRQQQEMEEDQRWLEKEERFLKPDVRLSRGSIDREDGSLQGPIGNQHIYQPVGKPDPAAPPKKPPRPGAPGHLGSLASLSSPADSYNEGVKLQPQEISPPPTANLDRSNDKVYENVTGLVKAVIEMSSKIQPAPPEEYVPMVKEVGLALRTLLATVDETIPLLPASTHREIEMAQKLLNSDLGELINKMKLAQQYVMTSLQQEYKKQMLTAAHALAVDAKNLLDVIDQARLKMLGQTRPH
# Chain of off-target kinases (Homo sapiens, UniProt P51451) (P51451 whole entry): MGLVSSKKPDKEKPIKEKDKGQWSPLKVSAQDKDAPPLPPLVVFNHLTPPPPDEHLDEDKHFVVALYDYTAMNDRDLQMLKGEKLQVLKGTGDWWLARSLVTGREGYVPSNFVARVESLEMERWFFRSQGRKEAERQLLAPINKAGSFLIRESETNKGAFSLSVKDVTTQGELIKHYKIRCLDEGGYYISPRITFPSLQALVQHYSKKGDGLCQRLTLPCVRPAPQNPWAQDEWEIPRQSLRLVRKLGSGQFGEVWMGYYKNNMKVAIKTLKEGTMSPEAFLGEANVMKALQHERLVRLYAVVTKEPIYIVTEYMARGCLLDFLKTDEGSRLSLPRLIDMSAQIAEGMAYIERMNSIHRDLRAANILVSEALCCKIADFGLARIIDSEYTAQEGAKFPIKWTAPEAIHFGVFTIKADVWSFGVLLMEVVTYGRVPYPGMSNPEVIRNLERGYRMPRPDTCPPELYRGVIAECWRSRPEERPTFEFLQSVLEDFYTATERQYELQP
# Chain of off-target kinases (Homo sapiens, UniProt P10721, A829P) (P10721 26-976 A829P): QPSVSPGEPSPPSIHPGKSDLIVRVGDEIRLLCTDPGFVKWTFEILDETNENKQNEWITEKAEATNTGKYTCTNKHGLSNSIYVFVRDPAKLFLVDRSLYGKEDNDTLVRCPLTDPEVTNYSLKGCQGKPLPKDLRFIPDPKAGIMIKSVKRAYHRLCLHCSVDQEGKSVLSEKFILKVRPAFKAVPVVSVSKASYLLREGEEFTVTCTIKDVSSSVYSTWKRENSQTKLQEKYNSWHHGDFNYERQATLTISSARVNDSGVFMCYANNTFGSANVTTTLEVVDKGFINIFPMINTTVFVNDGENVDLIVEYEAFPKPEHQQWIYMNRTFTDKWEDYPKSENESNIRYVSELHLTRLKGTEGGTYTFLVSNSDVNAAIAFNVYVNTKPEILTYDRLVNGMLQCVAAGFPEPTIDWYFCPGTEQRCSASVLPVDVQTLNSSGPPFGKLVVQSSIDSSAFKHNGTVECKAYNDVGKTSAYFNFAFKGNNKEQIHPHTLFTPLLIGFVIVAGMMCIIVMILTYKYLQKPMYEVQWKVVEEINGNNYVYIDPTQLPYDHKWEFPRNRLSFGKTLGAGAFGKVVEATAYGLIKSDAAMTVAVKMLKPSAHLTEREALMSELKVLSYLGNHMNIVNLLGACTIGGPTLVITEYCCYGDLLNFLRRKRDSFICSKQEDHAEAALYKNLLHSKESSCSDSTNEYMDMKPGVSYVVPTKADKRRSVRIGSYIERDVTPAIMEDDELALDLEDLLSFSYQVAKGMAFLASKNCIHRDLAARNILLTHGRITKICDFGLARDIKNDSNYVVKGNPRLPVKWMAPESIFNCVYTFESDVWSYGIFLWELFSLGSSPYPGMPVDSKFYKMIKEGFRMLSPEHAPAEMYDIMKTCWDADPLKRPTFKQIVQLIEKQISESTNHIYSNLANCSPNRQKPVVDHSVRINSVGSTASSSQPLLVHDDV
compound,measurement,setting,value
"N#Cc1cc(-c2ncnc(Nc3ccc(N4CCN(C5COC5)CC4)cc3)n2)ccc1OC1CCOCC1 [Compound 1, 5-(4-((4-(4-(oxetan-3-yl)piperazin-1-yl)phenyl)amino)-1,3,5-triazin-2-yl)-2-((tetrahydro-2H-pyran-4-yl)oxy)benzonitrile]",inhibition,off-target kinases [1]; read-out: % Inhibition 1,0%
same,inhibition,off-target kinases [1]; read-out: % Inhibition 2,2%
same,inhibition,off-target kinases [1]; read-out: % Inhibition Avg,1%
same,inhibition,off-target kinases [2]; read-out: % Inhibition 1,29%
same,inhibition,off-target kinases [2]; read-out: % Inhibition 2,30%
same,inhibition,off-target kinases [2]; read-out: % Inhibition Avg,30%
same,inhibition,off-target kinases [3]; read-out: % Inhibition 1,41%
same,inhibition,off-target kinases [3]; read-out: % Inhibition 2,42%
same,inhibition,off-target kinases [3]; read-out: % Inhibition Avg,42%
same,inhibition,off-target kinases [4]; read-out: % Inhibition 1,91%
same,inhibition,off-target kinases [4]; read-out: % Inhibition 2,90%
same,inhibition,off-target kinases [4]; read-out: % Inhibition Avg,90%
same,inhibition,off-target kinases [5]; read-out: % Inhibition 1,24%
same,inhibition,off-target kinases [5]; read-out: % Inhibition 2,27%
same,inhibition,off-target kinases [5]; read-out: % Inhibition Avg,26%
